Residues, ends and D or L forms follow the SMILES beside them.
Assays:
[1] = tested on: aggregated platelets induced by ADP; test: Platelet disaggregation rate of blood samples with ADP-induced platelet aggregation (hematology analyzer, PLT_O)
Procedure: The compounds in Table 1 above were respectively added to a diluent used for a hematology analyzer to prepare blood sample diluents. […] Each of the compounds in Table 1 (at a final concentration 0.01 mol/L) was added to the diluent separately, pH was adjusted to 14, and the osmotic pressure was adjusted to 200 mOsm/L to obtain the treatment solution.
The venous blood of a healthy subject was collected into blood anticoagulant tubes for later use. Two aliquot blood samples (1 ml/sample) were taken. The above-mentioned diluent was added to one of the samples, the resulting solution was mixed evenly, and then the platelet count was detected in a hematology analyzer (Mindray BC-6000Plus) and recorded as: PLT_O (unaggregated). The platelet aggregation inducer ADP (at a final concentration of 0.01 mmol/L) was added to the other sample, and the resulting solution was mixed evenly. Platelets were aggregated 5 min later, at this time the above-mentioned diluent was added, and then the blood containing the aggregated platelets was detected by the hematology analyzer to obtain the platelet count, which was recorded as: PLT_O (aggregated). Another 1 ml of blood sample was taken, the platelet aggregation inducer ADP (at a final concentration of 0.01 mmol/L) was added, and the resulting solution was mixed evenly. The above-mentioned treatment solution was added 5 min later, the resulting solution was mixed evenly, and then the platelet count of the treated blood was detected by the hematology analyzer and was recorded as: PLT_O (disaggregated).

[2] = pKa of the amino group of the compound
From the text: For the compound having a plurality of amino groups/imino groups, the pKa of amino group described herein refers to the first dissociation constant, that is, pKa of amino group or imino group which firstly dissociates hydrogen ion.

[3] = FIG. 13, 10 mmol/L, pH 9.5, ADP 0.01 mmol/L
[4] = Table 3, method of Example 1 (0.01 mol/L, pH 14, ADP 0.01 mmol/L)
[5] = Table 4, pH 10.64, method of Example 1
[6] = Table 4, pH 9.96, method of Example 1
[7] = Table 2, compound 0.01 mol/L, pH 14, ADP 0.01 mmol/L
[8] = Table 4, pH 5.75, method of Example 1
[9] = Table 4, pH 9.14, method of Example 1
[10] = Table 5, pH 9.5, method of Example 1
[11] = Table 4, pH 10.8, method of Example 1
[12] = Table 4, pH 8.18, method of Example 1

For `N.N#CS` [NH4SCN, ammonium thiocyanate], the disaggregation effect [1, 3] was 85.78%.
`Cl.N` [ammonium chloride] gave a disaggregation effect [1, 3] of 95.70%, a disaggregation effect ([1]; FIG. 14, 50 mmol/L (total for combination, equal parts), ADP 0.1 mmol/L) of 66.27% and a disaggregation rate ([1]; Table 6, 0.01 mol/L, pH 4.0) of 18.62%. The disaggregation rate ([1]; Table 6, 0.01 mol/L, pH 5.5) was 31.70%, the disaggregation rate ([1]; Table 6, 0.01 mol/L, pH 6.5) was 59.61% and the disaggregation rate ([1]; Table 6, 0.01 mol/L, pH 7.5) was 94.05%. For the same compound, the disaggregation rate ([1]; Table 6, 0.01 mol/L, pH 8.5) was 94.62%, the disaggregation rate ([1]; Table 6, 0.01 mol/L, pH 9.5) was 95.70% and the disaggregation rate ([1]; Table 6, 0.01 mol/L, pH 11.0) was 97.72%.
In the case of `CCCCN` [butylamine], the Platelet disaggregation rate [1, 4] is reported as 87.53% and the Platelet disaggregation rate [1, 5] is reported as 84.34%.
For 3-amino-1-propanol, the Platelet disaggregation rate [1, 6] was 81.43%.
Work on `Nc1ccccc1` [aniline] yielded a Platelet disaggregation rate [1, 4] of 56.26%.
With `[Cl-].[Na+]` [NaCl, reference compound] the disaggregation effect [1, 3] was 18.90%.
Work on `NCCCC(=O)O` [4-aminobutyric acid] yielded a pKa ([2]; pKa, Table 4) of 10.4.
For `Nc1ccc(N)c(S(=O)(=O)O)c1` [2,5-diaminobenzene-sulfonic acid], the Platelet disaggregation rate [1, 4] was 62.44% and the pKa ([2]; pKa, Table 3) was 5.17.
`NCCCCC(N)C(=O)NC(CCCCN)C(=O)O` (stereo not drawn) [lys-lys] gave a Platelet disaggregation rate [1, 4] of 85.75% and a pKa ([2]; pKa, Table 3) of 11.
In the case of `NCCCCO` [4-amino-1-butanol], the Platelet disaggregation rate [1, 6] is reported as 74.45% and the pKa ([2]; pKa, Table 4) is reported as 10.3.
With `CCCC(=O)O` [butyric acid, reference compound] the Platelet disaggregation rate [1, 7] was 11.45%.
Compound `NCCS(=O)(=O)O` [taurine] has a Platelet disaggregation rate [1, 8] of 46.25% and a pKa ([2]; pKa, Table 4) of 9.12.
`NCc1ccc(O)cc1` [4-hydroxybenzylamine] showed a Platelet disaggregation rate [1, 9] of 51.43% and a pKa ([2]; pKa, Table 4) of 9.14.
`N.N.O=P(O)(O)O` [(NH4)2HPO4, ammonium hydrogen phosphate] gave a disaggregation effect [1, 3] of 99.25%.
Compound `Br.N` [NH4Br, ammonium bromide] has a disaggregation effect [1, 3] of 93.48%.
In the case of `CC(N)=O` [acetamide], the Platelet disaggregation rate [1, 7] is reported as 64.57% and the Platelet disaggregation rate [1, 4] is reported as 44.44%.
In the case of `CNCCO` [2-(methylamino)ethanol], the Platelet disaggregation rate [1, 7] is reported as 82.49%%.
`N=C(N)NC(=N)N` [biguanide] showed a Platelet disaggregation rate [1, 4] of 97.54% and a pKa ([2]; pKa, Table 3) of 13.2.
Work on `N=C(N)NCCC[C@H](N)C(=O)O` [arginine] yielded a disaggregation rate [1, 10] of 62.64% and a pKa ([2]; pKa, Table 5) of 9.
1,3-diaminopropane gave a Platelet disaggregation rate [1, 4] of 91.14% and a pKa ([2]; Table 3) of 10.4.
ethylamine showed a Platelet disaggregation rate [1, 5] of 83.32% and a pKa ([2]; Table 4) of 10.67.
With `CCO` [ethanol, reference compound] the Platelet disaggregation rate [1, 7] was 14.46%.
For `I.N` [NH4I, ammonium iodide], the disaggregation effect [1, 3] was 92.75%.
Compound `N.O=P(O)(O)O` [NH4H2PO4, ammonium dihydrogen phosphate] has a disaggregation effect [1, 3] of 86.24%.
`CCCCc1ccc(O)cc1` [4-butylphenol, reference compound] gave a Platelet disaggregation rate [1, 7] of 9.43%.
With `Nc1cc(N)cc(N)c1` [1,3,5-triaminobenzene] the Platelet disaggregation rate [1, 4] was 72.44% and the pKa ([2]; pKa, Table 3) was 5.5.
`CC=O` [acetaldehyde, reference compound] gave a Platelet disaggregation rate [1, 7] of 16.54%.
In the case of butanol [reference compound], the Platelet disaggregation rate [1, 7] is reported as 13.14%.
For `NCS(=O)(=O)O` [aminomethanesulfonic acid], the Platelet disaggregation rate [1, 8] was 52.44% and the pKa ([2]; pKa, Table 4) was 5.75.
In the case of `NCCO` [ethanolamine], the Platelet disaggregation rate [1, 7] is reported as 91.45%, the Platelet disaggregation rate [1, 4] is reported as 86.45% and the Platelet disaggregation rate [1, 6] is reported as 88.45%.
For `NCCCCC(N)C(=O)O` (stereo not drawn) [lysine], the Platelet disaggregation rate [1, 4] was 70.49%, the pKa ([2]; pKa, Example 4) was 10.7 and the pKa ([2]; pKa, Table 3) was 10.8.
Work on `CNCC(=O)O` [sarcosine] yielded a Platelet disaggregation rate [1, 7] of 64.75%.
Work on `N=C(N)NCC(=O)O` [{[amino(imino)methyl]amino}-acetic acid] yielded a Platelet disaggregation rate [1, 11] of 94.02% and a pKa ([2]; pKa, Table 4) of 10.8.
`CC(=O)CC(C)=O` [acetylacetone, reference compound] showed a Platelet disaggregation rate [1, 7] of 8.45%.
With `N=C(N)N` [guanidine] the Platelet disaggregation rate [1, 7] was 84.35%, the Platelet disaggregation rate [1, 4] was 84.35% and the pKa [2] was 13.17.
`CCS(=O)(=O)O` [ethanesulfonic acid, reference compound] showed a Platelet disaggregation rate [1, 7] of 16.54%.
Compound `CNCc1ccc(O)cc1` [4-[(methylamino)methyl]phenol] has a Platelet disaggregation rate [1, 7] of 59.43%.
`NCC(=O)NCC(=O)O` [gly-gly] (H-Gly-Gly-OH) showed a disaggregation rate [1, 10] of 57.29% and a pKa [2] of 9.6.
In the case of `Nc1ccc(O)cc1` [4-aminophenol], the Platelet disaggregation rate [1, 7] is reported as 67.73%, the Platelet disaggregation rate [1, 9] is reported as 67.37% and the pKa [2] is reported as 5.5.
With `CC(=O)O.NC(CO)(CO)CO` [tris(hydroxymethyl)aminomethane acetate] the disaggregation rate [1, 10] was 75.23%.
In the case of `NCC(=O)O` [glycine], the Platelet disaggregation rate [1, 7] is reported as 65.47%, the Platelet disaggregation rate [1, 4] is reported as 65.47% and the disaggregation rate [1, 10] is reported as 70.47%.
`NC(=O)CCC(N)C(=O)O` (stereo not drawn) [glutamine] showed a Platelet disaggregation rate [1, 12] of 59.25%.
In the case of tris(hydroxymethyl)aminomethane, the disaggregation rate [1, 10] is reported as 97.32% and the pKa ([2]; Table 5) is reported as 8.1.
Work on `O=S(=O)(O)c1ccccc1` [benzenesulfonic acid, reference compound] yielded a Platelet disaggregation rate [1, 7] of 13.77%.
For `Nc1ccc(S(=O)(=O)O)cc1` [sulfanilic acid], the Platelet disaggregation rate [1, 7] was 55.15%, the Platelet disaggregation rate [1, 4] was 55.15% and the pKa ([2]; pKa, Example 4) was 10.1. For the same compound, the pKa ([2]; pKa, Table 3) was 3.32.
`N.O` [NH4OH, ammonia water] gave a disaggregation effect [1, 3] of 83.05%.
`NCC(O)CN` [1,3-diamino-2-propanol] gave a Platelet disaggregation rate [1, 4] of 93.78% and a pKa ([2]; Table 3) of 9.68.
For `N[C@@H](CCC(=O)O)C(=O)O` [glutamic acid], the disaggregation rate [1, 10] was 63.24%, the pKa [2] was 9.6 and the pKa ([2]; Table 5) was 9.6.
For `CC(=O)O` [acetate, reference compound], the Platelet disaggregation rate [1, 7] was 11.75%.
methyl guanidine showed a Platelet disaggregation rate [1, 11] of 86.36% and a pKa [2] of 13.2.
With `NCC(CN)CN` [2-(aminomethyl)-propane-1,3-diamine] the Platelet disaggregation rate [1, 4] was 96.43%, the disaggregation rate [1, 10] was 97.46% and the pKa ([2]; pKa, Table 3) was 9.59. It also gave a pKa ([2]; pKa, Table 5) of 9.6.
`N.N.N.O=P(O)(O)O` [(NH4)3PO4, ammonium phosphate] showed a disaggregation effect [1, 3] of 94.87%.
In the case of `CC(=O)NC(C)=O` [diacetamide], the Platelet disaggregation rate [1, 7] is reported as 75.43%.
In the case of `CC(N)C(N)=O` (stereo not drawn) [2-aminopropanamide], the Platelet disaggregation rate [1, 12] is reported as 62.65% and the pKa ([2]; pKa, Table 4) is reported as 8.18.
2-aminoacetamide gave a Platelet disaggregation rate [1, 12] of 64.57% and a pKa ([2]; Table 4) of 7.93.
`CCCN` [n-propylamine] showed a Platelet disaggregation rate [1, 5] of 85.53%.
Work on `OCN(CO)C(CO)(CO)CO` [reference compound] yielded a disaggregation rate [1, 10] of 24.0% and a pKa [2] of 6.5.
For `C=O` [formaldehyde, reference compound], the Platelet disaggregation rate [1, 7] was 13.85%.
In the case of `Nc1cccc(N)c1` [m-phenylenediamine], the Platelet disaggregation rate [1, 4] is reported as 66.83% and the pKa ([2]; pKa) is reported as 4.67.
For `CNC(CC(N)=O)C(N)=O` (stereo not drawn) [2-(methylamino) succinamide], the Platelet disaggregation rate [1, 4] was 74.43% and the pKa ([2]; pKa, Table 3) was 7.02.
Work on `NS(=O)(=O)O` [sulfamic acid] yielded a Platelet disaggregation rate [1, 8] of 64.54% and a pKa [2] of 1.19.
`NCCc1ccc(O)cc1` [tyramine] gave a Platelet disaggregation rate [1, 9] of 48.44% and a pKa ([2]; pKa, Table 4) of 10.6.
`Oc1ccccc1` [phenol, reference compound] showed a Platelet disaggregation rate [1, 7] of 8.44%.
Compound `N.N.O=C(O)C(=O)O` [NH4C2O4, ammonium oxalate] has a disaggregation effect [1, 3] of 87.67%.
aminoguanidine showed a Platelet disaggregation rate [1, 4] of 92.35% and a pKa ([2]; Table 3) of 11.04.

Source: US20230152304A1 (SHENZHEN MINDRAY BIO-MEDICAL ELECTRONICS CO., LTD., priority 2020, published 2023)
